Measured values as given in patent US8034791B2, “Activation of Egr-1 promoter by DNA damaging chemotherapeutics” (The University of Chicago, priority 2001, dated 2011).
Counter-ions that a name gives are not always drawn.

Experiments:
[1] = tested on: PC-3 cells; assay: Chemo-sensitivity by MTS assay, PC-3 cells; assay type: cell-based, human; details: PC-3, Ad.Egr-TNF.11D and chemotherapy 24 hrs
Method: (§1) Chemo-sensitivity of PC-3 and PROb cells as determined by MTS assay. PC-3 and PROb cells were plated at a density of 10^5 cells/100 μl medium in 96-well tissue culture plates and incubated overnight. […] After incubation, 200 μl of complete media, with or without chemotherapeutic agents, was added. Chemotherapeutic agents used were at final concentrations of cisplatin at 46 and 460 μM, doxorubicin at 3 and 300 μM, 5-fluorouracil at 2 and 200 mM and paclitaxel at 1.4 and 140 μM. Media was removed 24 hrs later and each well was rinsed with 200 μl of complete media (CM) and aspirated. 100 μl of CM was then added with 20 μl of CellTiter 96® Aqueous One Solution Cell Proliferation Assay solution (Promega, Madison, Wis.), and the cells were allowed to incubate for 1 hr. Absorbance was measured at 490-650 nm.

[2] = tested on: PROb xenografts; details: PROb xenografts, vector + IP agent vs vector alone; cisplatin 9, cyclophosphamide 160, doxorubicin 15, 5-FU 100, gemcitabine 500 mg/kg
Method: (§2) Saline or chemotherapeutic agents administered IP on days 1 and 2, including 9 mg/kg cisplatin, 160 mg/kg cyclophosphamide, 15 mg/kg doxorubicin, 100 mg/kg 5-FU and 500 mg/kg gemcitabine. Animals were euthanized, and xenografts were harvested 24 hrs after the second IP injection. Xenografts were snap-frozen in liquid nitrogen and homogenized in RIPA buffer (150 mM NaCl, 10 mM Tris pH 7.5, 5 mM EDTA pH 7.5, 100 mM PMSF, 1 µg/ml leupeptin and 2 μg/ml aprotinin) using a Brinkman Polytron homogenizer (Kinematica AG, Lucerne, Switzerland). After three freeze-thaw lysis cycles, the homogenate was centrifuged at 7800×g in a Sorvall RC-5C SS34 rotor (Kendro Laboratory Products, Newtown, Conn.) for 10 min at 4° C. TNF-α levels in the supernatants were measured by ELISA as described above.

[3] = tested on: PC-3 xenografts; assay type: in vivo, athymic nude mice; details: vector + IP agent days 1 and 2, cisplatin 9, cyclophosphamide 160, doxorubicin 15, 5-FU 100, gemcitabine 500 mg/kg
Method: as §2

[4] = tested on: PROb cells; assay: Chemo-inducibility of Ad.Egr-TNF.11D in vitro, PROb cells; assay type: cell-based, rat; details: vector-infected PROb cells, 24 hrs; cisplatin 250 μM, doxorubicin 3 μM, 5-FU 100 mM, gemcitabine 3 mM, paclitaxel 14 μM
Method: (§3) PC-3 and PROb cells were plated, infected with Ad.Egr.TNF, and incubated as discussed above. After incubation, 200 μl of CM, with or without chemotherapeutic agents, including cisplatin (250 μM), doxorubicin (3 μM), 5-fluorouracil (100 mM), gemcitabine (3 mM) and paclitaxel (14 μM) were added. Conditioned medium was harvested 24 hrs. later, and TNF-α concentration was measured (Quantikine Human TNF-α ELISA kit, R & D Systems, Minneapolis, Minn.).

[5] = tested on: PC-3 cells; assay: Chemo-inducibility of Ad.Egr-TNF.11D in vitro, PC-3 cells; details: PC-3 cells, doses used in the chemo-induction experiments (3 μM)
Method: as §3

[6] = tested on: PC-3 xenografts; assay: Analysis of microvessel density (anti-CD31), PC-3 xenografts; assay type: in vivo, athymic nude mice; details: day 27, anti-CD31
Method: Two or three xenografts from each treatment group in the PC-3 regrowth study above were collected and fixed in 10% neutral buffered formalin, embedded in paraffin, cut in 5 μm slices, mounted, baked, cleared in xylene, and rehydrated in decreasing alcohol concentrations (100%-70%) and distilled water. Sections were microwaved in 10 mM citrate buffer at pH 6.0 for 18 min, washed and soaked in 1% hydrogen peroxide/methanol for 20 min prior to blocking with avidin-biotin (Vector Laboratories, Burlingame, Calif.) for 15 min. Slides were incubated with biotin (15 min), washed and blocked with serum-free DAKO protein (DAKO, Carpinteria, Calif.) for 10 min prior to incubation with a 1:50 dilution of goat anti-mouse CD31 antibody (Santa Cruz, Santa Cruz, Calif.) for 60 min at RT. CD-31 staining was visualized on tissue sections following incubation with DAKO biotinylated anti-goat secondary antibody for 30 min and DAB reagent (Vector) for 60 sec. Sections were counterstained with Gill 3 hematoxylin and dehydrated in ethanol (95%-100%) and xylene prior to mounting. All slides were read by an investigator blinded to the treatment groups. Positively stained vessels were counted in 5-10 high power fields (×400) per slide using light microscopy. Blood vessels were identified by endothelial cell staining and by endothelial cells surrounding intraluminal erythrocytes. […]

[7] = tested on: PROb cells; assay: Preliminary in vitro TNF-α induction, PROb cells; assay type: cell-based, rat; details: PROb cells treated with Ad.TNF (100 MOI), 24 hrs; cisplatin 250 μM, doxorubicin 3 μM, 5-FU 20 mM, paclitaxel 14 μM
Method: (§4) In vitro measurement of TNF-α protein. PC-3 and PROb cells were plated in 96-well plates, grown overnight, and infected with Ad.Egr.TNF at 100 multiplicities of infection, incubated for three hrs, and were then treated with cisplatin (250 μM), doxorubicin (3 μM), 5-FU (20 mM) or paclitaxel (14 μM). Supernatants were harvested 24 hrs later and human TNF-α production was quantified by ELISA. Experiments were performed in quintuplicate.

[8] = tested on: PROb xenografts; assay: Xenograft regrowth study, PROb; assay type: in vivo, athymic nude mice; details: day 27, among control, doxorubicin alone and vector alone
Method: Xenograft regrowth studies. […] On days 0 and 3, mice received IT injection of 10 μl of either 5×10^9 p.u. […] IP injections of doxorubicin or NS (2 mg/kg) were administered daily from days 0 through 8. Xenografts were measured twice weekly and tumor volume was calculated according to the formula (length×width×thickness)/2. Fractional tumor volumes (V/V0 where V0=volume on day 0) were calculated and plotted.

[9] = tested on: PC-3 cells; assay: Preliminary in vitro TNF-α induction, PC-3 cells; assay type: cell-based, human; details: vector treated PC-3 cells (100 MOI), 24 hrs; cisplatin 250 μM, doxorubicin 3 μM, 5-FU 20 mM, paclitaxel 14 μM
Method: as §4

[10] = tested on: PROb cells; assay: Chemo-sensitivity by MTS assay, PROb cells; assay type: cell-based, rat; details: Ad.Egr-TNF.11D and chemotherapy 24 hrs
Method: as §1

[11] = tested on: PC-3 xenografts; assay: Xenograft regrowth study, PC-3; assay type: in vivo, athymic nude mice
Method: Xenograft regrowth studies. Treatment was initiated on day 0 at which time mice were assigned to one of 4 treatment groups: control, doxorubicin, Ad.Egr-TNF.11D, and combination of Ad.Egr-TNF.11D and doxorubicin. On days 0 and 3, mice received IT injection of 10 μl of either 5×10^9 p.u. Ad.Egr-TNF.11D, or 10 μl of viral formulation buffer. IP injections of doxorubicin or NS (2 mg/kg) were administered daily from days 0 through 8. Xenografts were measured twice weekly and tumor volume was calculated according to the formula (length×width×thickness)/2. Fractional tumor volumes (V/V0 where V0=volume on day 0) were calculated and plotted.

[12] = tested on: PROb xenografts; assay type: in vivo, nude mice; details: IT vector 5×10^9 p.u. + IP agent vs vector plus NS, cisplatin 9, cyclophosphamide 160, doxorubicin 15, 5-FU 100, gemcitabine 500 mg/kg
Method: (§5) In vivo measurement of TNF-α protein. PC-3 (1×10^7 cells) or PROb cells (5×10^6) in 100 μl PBS were injected subcutaneously into the right hind limb of nude mice. Tumor-bearing mice received IT Ad.Egr.TNF (5×10^9 p.u. in 10 μl) with 250 μl of complete media with NS or a chemotherapeutic agent, including cisplatin (9 mg/kg), cyclophosphamide (160 mg/kg), doxorubicin (15 mg/kg), 5-fluorouracil (100 mg/kg) and gemcitabine (500 mg/kg). Each mouse IP injections were administered 20 hrs after transfection, and two consecutive IT and IP injections were given. Animals were euthanized, and xenografts were harvested 48 hrs after the second IP injection. Xenografts were snap-frozen in liquid nitrogen and homogenized in RIPA buffer (150 mM NaCl, 10 mM Tris at pH 7.5, 5 mM EDTA at pH 7.5, 100 mM PMSF, 1 μg/ml leupeptin and 2 μg/ml aprotinin). After three freeze-thaw lysis cycles, the homogenate was centrifuged for 10 minutes at 4° C. TNF-α levels in the supernatants were measured as described above.

[13] = tested on: PC-3 xenografts; assay type: in vivo, nude mice; details: IT vector 5×10^9 p.u. + IP agent vs vector and NS, cisplatin 9, cyclophosphamide 160, doxorubicin 15, 5-FU 100 mg/kg
Method: as §5

[14] = higher concentration: cisplatin 460 μM, doxorubicin 300 μM, 5-FU 200 mM, taxol 140 μM
[15] = lower concentration: cisplatin 46 μM, doxorubicin 3 μM, 5-FU 2 mM, taxol 1.4 μM

## COc1cccc2c1C(=O)c1c(O)c3c(c(O)c1C2=O)C[C@@](O)(C(=O)CO)C[C@@H]3O[C@H]1C[C@H](N)[C@H](O)[C@H](C)O1 [doxorubicin, doxorubicin hydrochloride]
[1]; [14]
  surviving fraction: 30%
[1]; [15]
  surviving fraction: 90%
[2]
  induction of TNF-α protein: 2.3 fold
[3]
  increase in TNF-α levels: 4.2 fold
[4]
  increase in TNF-α levels: 7.4 fold
[5]
  toxicity to cells: toxic at the doses used
[6]
  number of vessels per high power field: 6.24±0.35
[7]
  increased TNF levels: 7.3 fold
[8]
  tumor growth delay: no difference in tumor growth delay
[9]
  increased TNF levels: 14.5 fold
[10]; [14]
  surviving fraction: 85%
[10]; [15]
  surviving fraction: 100%
[11]; PC-3 xenografts, day 23, doxorubicin 2 mg/kg IP daily
  tumor growth: 3 fold
[11]; xenograft regrowth studies in nude mice
  systemic toxicity, including weight loss and deaths: Systemic toxicity, including weight loss and deaths, was observed
[12]
  increased TNF-α levels: 2.5 fold
[13]
  induced TNF-α: 3.1 fold
